Reference: publication PMC10788937, “Chemical Catalysis Guides Structural Identification for the Major In Vivo Metabolite of the BET Inhibitor JQ1” (ACS Medicinal Chemistry Letters, 2024)

What was measured:
[1] = Pharmacokinetic studies in mice (1:1 mixture, intraperitoneal); assay type: in vivo, mice (C57BL/6NJ); conditions: for AUC(0-t) / CL/F / half-life at 24 h: C57BL/6NJ, mouse, plasma, ip, 50 mg/kg 1:1 mixture, intraperitoneal
Excerpt: The observed improvement in male mice was not determined to be significant, but the gender differences are not unprecedented in human drug metabolism, as the clearance of CYP3A substrates occurs more rapidly by females than males.[35] Gender differences in hepatic CYP expression have been identified in mice, rats, and humans,[36] including a female-specific CYP3A family member in mice,[37] and circadian variations in mice can accentuate the sex differences in CYP3A isoform expression.[38] […] It is noteworthy that the relationship between AUC and half-life can be affected with no correlation due to influence on both by various factors such as target-mediated drug disposition, drug formulation, route of administration, metabolism, absorption, and elimination pathways.[39],[40] AUC0–t represents the cumulative effect, while t1/2 represents only the rate at which the drug is eliminated from the body. […]
time binding response was recorded using the instrument software and sensorgrams were analyzed using the QDAT software. The baseline subtraction, referencing, and double-referencing techniques were applied to obtain specific binding responses. Kinetic parameters were calculated by fitting sensograms to OneStep binding models for determining the dissociation rate constant (kd) for the highest concentration and constraining the lower concentrations to the determined value. All data was locally fitted to a simple 1:1 interaction model.
Pharmacokinetic studies in mice
Mouse studies were performed under protocols approved by the Institutional Animal Care and Use Committee of Baylor College of Medicine and guidelines established by the NIH Guide for the Care and Use of Laboratory Animals. Animals were housed under standard conditions of a 12-hour light/dark cycle in a vivarium with controlled ambient temperature (70˚ ± 2˚ and 20-70% relative humidity). Pharmacokinetic studies were performed using 8-12-week-old mice (C57BL/6NJ, female, n =4 and male n = 4)). Mice were administered 50 mg/kg of compounds (1:1 of mixtures of (+)-JQ1 and (+)-JQ1-D) via intraperitoneal injection to mice. Twenty µl of blood was collected via the tail vein at 0, 15, 30 minutes, 1, 2, 4, 8, and 24 hours post treatment. To 10 ul of plasma was added 25 ul of MeOH with internal standard. The resulting mixtures were vortexed and span at rcf 15,000 for 15 min and 5 ul of the supernatant were injected into the UHPLC-Q Exactive Orbitrap MS for analysis. The concentrations of tested compounds were calculated based on their corresponding standard curves. Pharmacokinetic parameters including half-time (t1/2), area under the plasma concentration–time curve during the period of observation (AUC0–t), clearance normalized by bioavailability (CL/F) were calculated on WinNonlin software (Certara, Princeton, NJ) by noncompartmental analysis.

in vitro = assay: in vitro
Experimental: (§1) The samples are collected at specific time-points (0, 5, 10, 20, 40, and 60 min. The reactions are terminated by adding equivalent volume of ice-cold MeOH and vortexed. The reaction mixtures are centrifuged at rcf 15,000 for 15 min. Five μL of the supernatant will be analyzed by UHPLC-Q Exactive Orbitrap MS (Thermo Fisher Scientific, San Jose, CA) equipped with 50 mm × 4.6 mm column (XDB C-18, Agilent Technologies, Santa Clara, CA). The column temperature is maintained at 40 °C. The flow rate of is at 0.3 mL/min with a 30% mobile phase (acetonitrile containing 0.1% formic acid). Q Exactive MS is operated in positive or negative mode with electrospray ionization. Ultrapure nitrogen is applied as the sheath (45 arbitrary unit), auxiliary (10 arbitrary unit), sweep (1.0 arbitrary unit) and the collision gas. The capillary gas temperature is set at 275 °C and the capillary voltage was set at 3.7 kV. MS data were acquired from 80 to 1200 Da in […]
(§2) The Surface Plasmon Resonance (SPR) experiment was conducted using a Pioneer FE SPR System (Sartorius) equipped with a SPR HisCap Sensor
(§3) Chip. The instrument was calibrated and validated prior to the experiment according to the manufacturer's instructions. The chip surface was activated with a mixture of N-hydroxysuccinimide (NHS), 50 mM, and N-ethyl-N'-(3-dimethylaminopropyl) carbodiimide (EDC), 200 mM, at a 20 µL/min flow rate for 5. minutes. Covalent attachment of his-BRDT to channel 1 was achieved by injecting 150 µL of protein at 10 mg/mL at […]. Channel 2 of the chip was used as a blank reference and unreacted functional groups of both channels were blocked using ethanolamine.
(§4) SPR running buffer consisted of 100 mM Tris-HCl, 200 mM NaCl, and 0.05% Tween-20. […]
(§5) closely mimics the buffer conditions and injected at 40µL/min using the OneStep injection system at 0.5, 5, and 50 µM concentrations. The real-

BRD4 = conditions: read-out: BRD4 IC50; ALPHAScreen, biotin-tagged (+)-JQ1 probe
[2] = cited from earlier work
BRDT = BRDT (Homo sapiens, UniProt Q58F21); assay type: binding; conditions: SPR, his-BRDT; for Kd: read-out: BRDT binding Kd
Experimental: as §1, §2, §3, §4, §5

[3] = Isotopomeric ratios from the pharmacokinetic time course in mice; assay type: in vivo; conditions: first time point

Structure (SMILES) | AUC(0-t) ([1]; female mice) [ng·h/mL] | CL/F ([1]; female mice) [mL/min/kg] | half-life at 24 h ([1]; female mice) [min] | AUC(0-t) ([1]; male mice) [ng·h/mL] | CL/F ([1]; male mice) [mL/min/kg] | half-life at 24 h ([1]; male mice) [min] | half-life at 1 h, 0.2 μM (in vitro; human, microsomes) [min] | half-life at 1 h, 0.2 μM (in vitro; mouse, microsomes) [min] | IC50 (BRD4) [nM] | BRDT binding Kd (BRDT) | Kd (BRDT) [nM] | further results
Cc1sc2c(c1C)C(c1ccc(Cl)cc1)=N[C@@H](CC(=O)OC(C)(C)C)c1nnc(C)n1-2 [(+)-JQ1, reference compound] | […] | […] | 116 | […] | […] | 202 | […] | […] | […] |  |  | half-life at 0.2 μM (in vitro; human, microsomes): 7.9 min; in vivo half-life [2]: about an hour
[2H]C([2H])([2H])c1sc2c(c1C)C(c1ccc(Cl)cc1)=N[C@@H](CC(=O)OC(C)(C)C)c1nnc(C)n1-2 [(+)-JQ1-D] | […] | 16.5 | […] | 94200 | […] | […] | 22.5 | 19.8 | […] |  |  | improvement of total exposure (AUC0–t) compared to (+)-JQ1 ([1]; female mice): 23%; improvement of total exposure (AUC0–t) compared to (+)-JQ1 ([1]; male mice): […]
Cc1c(CF)sc2c1C(c1ccc(Cl)cc1)=N[C@@H](CC(=O)OC(C)(C)C)c1nnc(C)n1-2 [(+)-JQ1-F1] |  |  |  |  |  |  | 52 |  |  | lost potency | 722 | 
Cc1c(CO)sc2c1C(c1ccc(Cl)cc1)=N[C@@H](CC(=O)OC(C)(C)C)c1nnc(C)n1-2 [M1] |  |  |  |  |  |  |  |  |  |  |  | M1/M1D ratio ([3]; female mice): 2.095 ± 0.089; M1/M1D ratio ([3]; male mice): 1.799 ± 0.043
Cc1c(C(F)F)sc2c1C(c1ccc(Cl)cc1)=N[C@@H](CC(=O)OC(C)(C)C)c1nnc(C)n1-2 [(+)-JQ1-F2] |  |  |  |  |  |  | 125 |  |  | lost potency | 3920 | Human liver microsomal t1/2 (in vitro; 0.1 mg/mL microsomal protein): substantially improved half-life
